The source of these data is article PMC5005245, “Chemical and pharmacological evaluations on the extract of Scutellaria baicalensis Georgi (Huang-Qin) prepared by various extraction methods” (SpringerPlus, 2016).

A short description of one assay: FRAP assay. The conditions noted are these: positive control, 1 mM was used; mean ± SEM (n = 3). How it is done:
The FRAP assay was performed in a 96-well plate as described (Firuzi et al. [2005]). Briefly, 5 µl of each sample was mixed with 150 µl of freshly prepared FRAP reagent (250 mM acetate buffer, pH 3.6; 8.3 mM 2,4,6-tripyridyl-s-triazine dissolved in 40 mM HCl and 16.7 mM FeCl3·6H2O solution). After incubation at 37 °C for 30 min, the absorbance of the solution was measured at 593 nm. Different concentrations of Fe^2+ standard solution were used for the construction of the standard curve, and ascorbic acid was used as the positive control.

Assay [1] in a line: DPPH free radicals scavenging assay. The note with it: concentration of sample which scavenges 50 % of free radicals; 30 min; mean ± SEM (n = 3). As to the method: The free radicals scavenging capacities (SC) were measured and compared using the DPPH assay (Chan et al. [2010]). Briefly, 5 µl of individual extract (0.625–10 mg/ml) was mixed with 195 μl of DPPH solution (24 mg/l) in a 96-well plate. The reaction was allowed to proceed in the dark for 30 min before the absorbance of the resultant solution was measured at 515 nm using a Micro-plate Absorbance Reader (Bio-Rad, CA, USA). Ascorbic acid (Sigma-Aldrich Chemicals Co., MO, USA) in distilled water served as the positive control. SC50 was estimated as the concentration of sample which scavenges 50 % of free radicals.

In turn, `O=C1O[C@H]([C@@H](O)CO)C(O)=C1O` [Ascorbic acid] yielded an FRAP assay in “FRAP assay” of 2278 ± 15 μmol Fe^2+/mg extract. For the same molecule, in assay [1], the “DPPH assay (SC50)” value came out at 0.107 ± 0.004 mg/mL.
